From patent US20150297772A1, “COMPOSITION FOR ODOR REMOVAL AND FRAGRANCE EMISSION COMPRISING COMPLEXES OF CUCURBITURIL AND FRAGRANCE” (POSTECH ACADEMY-INDUSTRY FOUNDATION, priority 2012, published 2015)

Experiments:
[1] = complex formation of cucurbituril homologues with menthol, analyzed by 1H-NMR; format: binding; details: slurry with 11.8 mg menthol and 0.5 mL distilled water, molar ratio 1:1, dried complex
Method: A complex was prepared by mixing 100 mg of cucurbit[7]uril and 11.8 mg of menthol at a molar ratio of 1:1. 79.5 mg of cucurbit[6]uril and 118.3 mg of cucurbit[8]uril were respectively put into two mortars, and 11.8 mg of menthol was added to each of the mortars. 0.5 mL of distilled water was added to form a slurry, and then the slurry was stirred for 10 minutes using a pestle to prepare a complex. The complex was dried in an oven at […] for 6 hours. The dried complex was analyzed by 1H-NMR.

[2] = exchange of fragrant molecule for odor molecule in cucurbit[7]uril complex, evaluated by 1H-NMR; format: binding
Method: Cucurbit[7]uril was dissolved in distilled water to obtain a 2 mM cucurbit[7]uril aqueous solution. Ethyl butyrate (2 mM), which is a fragrant material, was added to the solution to obtain a complex (cucurbit[7]uril:ethyl butyrate=1:1). The bonding of diallyldisulfide with cucurbituril according to the addition of diallyldisulfide, which is an odor material, and the release of ethyl butyrate according to the addition of diallyldisulfide were evaluated comparing the 1H-NMR peak of the complex after the addition of diallyldisulfide with the 1H-NMR peak of the complex before the addition of diallyldisulfide.
(§1) Cucurbit[7]uril was dissolved in distilled water to obtain a 4 mM cucurbit[7]uril aqueous solution. Menthol (4 mM), which is a fragrant material, was added to the solution to obtain a complex (cucurbit[7]uril:menthol=1:1). The bonding of diaminohexane with cucurbituril according to the addition of diaminohexane, which is an odor material, and the release of menthol according to the addition of diaminohexane were evaluated comparing the 1H-NMR peak of the complex after the addition of diaminohexane with the 1H-NMR peak of the complex before the addition of diaminohexane.
as §1, with “Hexanal” for “Menthol”, “(cucurbit[7]uril:hexanal=1:1).” for “(cucurbit[7]uril:menthol=1:1).”, “hexanal” for “menthol”

[3] = cited from earlier work

Molecule: O=C1N2CN3C(=O)N4CN5C(=O)N6CN7C(=O)N8CN9C(=O)N%10CN%11C(=O)N%12CN1C1C2N2CN%13C(=O)N(CN%14C(=O)N(CN%15C(=O)N(CN%16C(=O)N(CN%17C(=O)N(CN1C2=O)C%12C%11%17)C%10C9%16)C8C7%15)C6C5%14)C4C3%13 (stereo not shown) [cucurbit[6]uril]
- complex formation with menthol (FIG. 2) [1]: barely makes a complex with menthol

Molecule: O=C1N2CN3C(=O)N4CN5C(=O)N6CN7C(=O)N8CN9C(=O)N%10CN%11C(=O)N%12CN%13C(=O)N%14CN%15C(=O)N%16CN1C1C2N2CN%17C(=O)N(CN%18C(=O)N(CN%19C(=O)N(CN%20C(=O)N(CN%21C(=O)N(CN%22C(=O)N(CN%23C(=O)N(CN1C2=O)C%16C%15%23)C%14C%13%22)C%12C%11%21)C%10C9%20)C8C7%19)C6C5%18)C4C3%17 (stereo not shown) [cucurbit[8]uril]
- complex formation with menthol (FIG. 2) [1]: weakly makes a complex with menthol

Molecule: C=CCSSCC=C [diallydisulfide, diallyldisulfide]
- bonding of diallyldisulfide with cucurbituril (FIG. 3) ([2]; added to cucurbit[7]uril:ethyl butyrate=1:1 complex, 2 mM aqueous solution): makes a complex with cucurbituril

Molecule: NCCCCCCN [diaminohexane]
- bonding of diaminohexane with cucurbituril (FIG. 5) ([2]; added to cucurbit[7]uril:hexanal=1:1 complex, 4 mM aqueous solution): makes a complex with cucurbituril
- bonding of diaminohexane with cucurbituril (FIG. 4) ([2]; added to cucurbit[7]uril:menthol=1:1 complex, 4 mM aqueous solution): makes a complex with cucurbituril

Molecule: CCCC(=O)OCC [ethyl butyrate]
- release of ethyl butyrate from the complex (FIG. 3) ([2]; cucurbit[7]uril:ethyl butyrate=1:1, 2 mM aqueous solution, diallyldisulfide added): released from the complex

Molecule: CCCCCC=O [hexanal]
- release of hexanal from the complex (FIG. 5) ([2]; cucurbit[7]uril:hexanal=1:1, 4 mM aqueous solution, diaminohexane added): released from the complex

Molecule: CC1CCC(C(C)C)C(O)C1 (stereo not shown) [menthol]
- release of menthol from the complex (FIG. 4) ([2]; cucurbit[7]uril:menthol=1:1, 4 mM aqueous solution, diaminohexane added): released from the complex

Molecule: cucurbit[7]uril
- complex formation with menthol (FIG. 2) [1]: strongly makes a complex with menthol
- solubility in water [3]: 2˜3×10^−2 M
